Legend:
Experiment in all cases: relative viability (nuclei count vs DMSO), 5 days (fraction); higher = more cells survive
CAP-232 + Luminespib = compound: C[C@H]([C@@H](C(=O)N)NC(=O)[C@@H]1CSSC[C@@H](C(=O)N[C@H](C(=O)N[C@@H](C(=O)N[C@H](C(=O)N1)CCCCN)CC2=CNC3=CC=CC=C32)CC4=CC=C(C=C4)O)NC(=O)[C@@H](CC5=CC=CC=C5)N)O [CAP-232] + CCNC(=O)c1noc(-c2cc(C(C)C)c(O)cc2O)c1-c1ccc(CN2CCOCC2)cc1 [Luminespib] (partner 0.01 µM)
In short: (§1)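 Lung cancer cell lines in 1536-well plates were dosed by pin tool the day after seeding, either with one drug alone or with a fixed anchor-drug dose plus five library-drug doses (not always all listed) in √10 steps. After 5 days, cells were fixed and their nuclei stained in one step (final 0.05% Triton X-100, 1% formaldehyde, 1 ug/ml Hoechst), then counted on 4× images. Relative viability is the nuclei count in treated wells divided by that in vehicle wells. Values are medians of duplicate plates.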

CAP-232 + Foretinib = compound: C[C@H]([C@@H](C(=O)N)NC(=O)[C@@H]1CSSC[C@@H](C(=O)N[C@H](C(=O)N[C@@H](C(=O)N[C@H](C(=O)N1)CCCCN)CC2=CNC3=CC=CC=C32)CC4=CC=C(C=C4)O)NC(=O)[C@@H](CC5=CC=CC=C5)N)O [CAP-232] + COc1cc2c(Oc3ccc(NC(=O)C4(C(=O)Nc5ccc(F)cc5)CC4)cc3F)ccnc2cc1OCCCN1CCOCC1 [Foretinib] (partner 0.25 µM)
In short: as §1

CAP-232 + OSI-027 = compound: C[C@H]([C@@H](C(=O)N)NC(=O)[C@@H]1CSSC[C@@H](C(=O)N[C@H](C(=O)N[C@@H](C(=O)N[C@H](C(=O)N1)CCCCN)CC2=CNC3=CC=CC=C32)CC4=CC=C(C=C4)O)NC(=O)[C@@H](CC5=CC=CC=C5)N)O [CAP-232] + COc1cccc2cc(-c3nc([C@H]4CC[C@H](C(=O)O)CC4)n4ncnc(N)c34)[nH]c12 [OSI-027] (partner 0.5 µM)
In short: as §1

CAP-232 + Alpelisib = compound: C[C@H]([C@@H](C(=O)N)NC(=O)[C@@H]1CSSC[C@@H](C(=O)N[C@H](C(=O)N[C@@H](C(=O)N[C@H](C(=O)N1)CCCCN)CC2=CNC3=CC=CC=C32)CC4=CC=C(C=C4)O)NC(=O)[C@@H](CC5=CC=CC=C5)N)O [CAP-232] + Cc1nc(NC(=O)N2CCC[C@H]2C(N)=O)sc1-c1ccnc(C(C)(C)C(F)(F)F)c1 [Alpelisib] (partner 2 µM)
In short: as §1

CAP-232 + Decitabine = compound: C[C@H]([C@@H](C(=O)N)NC(=O)[C@@H]1CSSC[C@@H](C(=O)N[C@H](C(=O)N[C@@H](C(=O)N[C@H](C(=O)N1)CCCCN)CC2=CNC3=CC=CC=C32)CC4=CC=C(C=C4)O)NC(=O)[C@@H](CC5=CC=CC=C5)N)O [CAP-232] + Nc1ncn([C@H]2C[C@H](O)[C@@H](CO)O2)c(=O)n1 [Decitabine] (partner 2 µM)
In short: as §1

Cell Line	relative viability (CAP-232 + Luminespib; first compound 0.4 µM)	relative viability (CAP-232 + Luminespib; first compound 1.265 µM)	relative viability (CAP-232 + Luminespib; first compound 4 µM)	relative viability (CAP-232 + Luminespib; first compound 12.65 µM)	relative viability (CAP-232 + Foretinib; first compound 0.4 µM)	relative viability (CAP-232 + Foretinib; first compound 1.265 µM)	relative viability (CAP-232 + Foretinib; first compound 4 µM)	relative viability (CAP-232 + Foretinib; first compound 12.65 µM)	relative viability (CAP-232 + OSI-027; first compound 0.4 µM)	relative viability (CAP-232 + OSI-027; first compound 1.265 µM)	relative viability (CAP-232 + OSI-027; first compound 4 µM)	relative viability (CAP-232 + OSI-027; first compound 12.65 µM)	relative viability (CAP-232 + Alpelisib; first compound 0.4 µM)	relative viability (CAP-232 + Alpelisib; first compound 1.265 µM)	relative viability (CAP-232 + Alpelisib; first compound 4 µM)	relative viability (CAP-232 + Alpelisib; first compound 12.65 µM)	relative viability (CAP-232 + Decitabine; first compound 0.4 µM)	relative viability (CAP-232 + Decitabine; first compound 1.265 µM)	relative viability (CAP-232 + Decitabine; first compound 4 µM)	relative viability (CAP-232 + Decitabine; first compound 12.65 µM)
NCI-H1734	0.194	0.214	0.163	0.206	0.883	0.863	0.971	0.697	0.558	0.59	0.56	0.406	0.611	0.662	0.755	0.702	0.484	0.511	0.516	0.397
NCI-H520	0.22	0.206	0.184	0.208	0.734	0.98	0.92	0.47	0.258	0.31	0.304	0.3	0.945	0.93	1.08	0.568	0.496	0.509	0.518	0.416
NCI-H727	0.474	0.318	0.348	0.386	0.933	0.92	0.845	0.824	0.593	0.515	0.795	0.421		0.59	0.633	0.59	0.717	0.831	1.07	0.957
NCI-H596	1.03	1.03	0.988	0.901	0.863	0.739	0.985	0.827	0.767	0.726	0.884	0.633	0.558	0.512	0.497	0.507	1.03	0.971	0.69	0.965
NCI-H1755	0.419	0.612	0.329	0.383	0.927	0.883	0.934	0.815	0.699	0.713	0.754	0.653	0.984	0.91	1.1	0.763	0.734	0.738	0.761	0.723
SW 1573	0.166	0.323	0.214	0.161	0.873	0.836	0.903	1.03	0.612	0.785	0.678	0.111	0.744	0.861	0.8	0.672	0.48	0.534	0.45	0.169
NCI-H647	0.12	0.114	0.211	0.203	1.15	1.06	1.36	0.749	0.576	0.775	0.739	0.577	1.18	1.16	1.37	0.761	0.308	0.372	0.318	0.297
UMC-11	0.964	1.07	1.07	0.994	1.09	1.1	1.12	0.977	0.474	0.484	0.517	0.39	1.06	1.04	1.16	0.777	0.55	0.55	0.581	0.671
HCC-15	0.254	0.228	0.248	0.312	1.08	1.07	1.09	0.652	0.714	0.662	0.69	0.521	0.935	0.878	0.86	0.824	0.686	0.62	0.638	0.176
NCI-H2126	0.909	0.955	0.992	0.659	1.34	1.33	1.63	1.11	0.743	0.76	0.846	0.648	0.751	0.742	0.8	0.73	0.488	0.612	0.618	0.614
NCI-H2085	0.472	0.459	0.425	0.462	0.933	0.87	1.1	0.998	0.786	0.726	0.934	0.594	1.02	0.886	0.902	1.16	0.56	0.542	0.511	0.545
BEN	0.501	0.234	0.184	0.371	0.776	0.624	0.595	0.595	0.27	0.33	0.287	0.241	1.03	1.01	1.06	0.858	0.792	0.686	0.742	0.795
NCI-H650	0.735	0.824	0.674	0.721	1.01	1	0.969	0.926	0.619	0.506	0.602	0.543	0.997	1.3	0.997	0.825	0.342	0.278	0.278	0.156
LCLC-103H	1.04	0.989	0.902	1.07	0.838	0.735	0.802	0.827	0.481	0.375	0.496	0.464	0.948	0.921	0.972	0.898	0.777	0.687	0.735	0.704
PC-3 [JPC-3]	0.663	0.661	0.732	0.538	1.1	1.02	1.05	0.98	0.853	0.794	0.796	0.73	1.1	1.08	1.03	1.08	0.738	0.895	0.821	0.864
COR-L23	0.475	0.776	0.81	0.506	1.02	0.957	1.1	0.851	1.15	0.759	0.85	0.495	0.725	0.754	0.701	0.616	0.451	0.407	0.471	0.337
NCI-H1915	0.946	0.798	0.806	0.736	1.11	1.11	1.11	1.09	0.566	0.601	0.672	0.325	1.05	1.02	1.04	1.06	0.272	0.227	0.269	0.25
